# Where a SMILES comes first, the peptide text is derived from it. Where no end group is shown, it is not given here. [ ]: non-standard residue; d: D form. The star is where a group is joined. Nle = CCCC[C@H](N)C(=O)O; Cbz = O=C(OCc1ccccc1)*
# Experiments:
# [1] = tested on: processing of PGRN into GRNs; test: Protease inhibitor panel, PGRN/GRN levels by immunoblot; type: cell-based, human; conditions: HAP1 WT cells, 24 hrs
# Procedure: (§1) Asterisks (*) denote endogenous, intermediate PGRN cleavage products.
# Processing of PGRN into GRNs likely involves one or more lysosomal proteases. To narrow down which class of proteases may be responsible for intracellular PGRN metabolism, HAP1 WT cells were treated with a panel of protease inhibitors and measured PGRN/GRN levels by immunoblot. […] One potential candidate lysosomal cysteine protease is cathepsin L, which was reported to cleave mouse PGRN in vitro.
# [2] = tested on: processing of PGRN into GRNs; test: Pan-lysosomal inhibitor treatment, PGRN/GRN levels by ELISA and immunoblot; type: cell-based, human; conditions: HAP1 WT cells, 24 hrs, CQ 50 μM, BafA1 50 nM, ConA 50 nM; for secreted PGRN: conditioned media ELISA; for GRN levels / intracellular PGRN: immunoblot
# Procedure: HAP1 WT cells were treated for 24 hrs with the pan-lysosome inhibitors chloroquine (CQ; 50 μM), bafilomycin A1 (BafA1; 50 nM), or concanamycin A (ConA; 50 nM) and conditioned media was analyzed for secreted PGRN by ELISA.
# as §1
# Because rapid processing of endocytosed PGRN into GRNs was observed, inhibiting lysosome function could impair GRN production. To determine the effect of pharmacologic lysosome inhibition on GRN levels, HAP1 WT cells were treated with the pan-lysosomal inhibitors chloroquine, bafilomycin A1, or concanamycin A1 for 24 hours and monitored PGRN/GRN levels by immunoblot. These compounds act as lysosome alkalizing agents or inhibitors of the vacuolar-type H+-ATPase (V-ATPase), which is needed for proper lysosome acidification and function. Further, these compounds increase intracellular and secreted PGRN.
# [3] = tested on: processing of PGRN into GRNs; test: Cathepsin L inhibitor II treatment, PGRN/GRN levels by immunoblot; type: cell-based, human; conditions: HAP1 WT cells, increasing concentrations, 40 hrs
# Description: as §1
# [4] = at 25° C.; cited from earlier work
# Grn KO MEF cells = test: Rescue of cathepsin-D (CTSD) phenotype in Grn KO MEFs by exogenous protein; type: cell-based, mouse; conditions: PGRN 10 μg/mL or GRN-2 proteins 25 μg/mL, 120 hrs, immunoblot
# [5] = tested on: PGRN KO mouse embryonic fibroblasts (MEFs); test: Uptake of recombinant PGRN and generation of GRNs in PGRN KO MEFs; type: cell-based; conditions: 5 or 10 μg/mL, immunoblot
# Procedure: PGRN KO MEF cells were treated with recombinant human PGRN (5 or 10 μg/mL) or recombinant mouse PGRN (5 μg/mL) in the media for 24 hrs and lysates were analyzed for PGRN (R&D AF2420) and GRN (Sigma) by immunoblot.
# Because this study focused on screening and validating human specific PGRN antibodies, antibodies to detect endogenous mouse GRNs have not been identifies. Nevertheless, to determine if mouse cells are able to process human PGRN into mature GRNs, primary PGRN KO mouse embryonic fibroblasts (MEFs) were treated with recombinant human or mouse PGRN for […]. PGRN/GRN levels were measured in the lysates by immunoblot. […] Next, experiments were performed to determine if human PGRN would be processed into GRNs in mouse brain. Somatic brain transgenesis (SBT) were performed by injecting rAAV2/1 encoding eGFP or human N-TAP PGRN into the cerebral ventricles of newborn (PO) PGRN KO mice. The SBT paradigm leads to transgene expression that is almost exclusively neuronal as assessed by predominant co-localization between eGFP or PGRN (V5) and the neuronal marker NeuN at 3 months of age.
# C-TAP PGRN = C-TAP PGRN (UniProt P28799)
# cathepsin L = cathepsin L (Homo sapiens, UniProt P07711); test: In vitro cleavage of PGRN by recombinant cathepsin L; type: biochemical
# HAP1 PGRN KO cells = test: Uptake and processing of C-TAP or N-TAP PGRN into GRNs (immunoblot); type: cell-based, human; conditions: 5 μg/mL, 24 hrs, compared to N-TAP PGRN
# Procedure: HAP1 PGRN KO cells were treated with C-TAP PGRN or N-TAP PGRN (5 μg/mL) for 24 hrs and […] lysates were analyzed for PGRN and GRN by immunoblot.
# PGRN levels have been linked to expression of several genes including SORT1, encoding the membrane receptor sortilin, and TMEM106B, encoding the transmembrane protein 106B (TMEM106B). Thus, altered expression of these proteins could affect the production of intracellular GRNs as well. To address this, experiments were performed to determine if expression of sortilin, which facilitates endocytosis and trafficking of PGRN to the lysosome, influences GRN levels. PGRN KO cells were treated with PGRN tagged at either the C-terminus (C-TAP), which disrupts sortilin binding or the N-terminus (N-TAP), which preserves sortilin binding, and measured intracellular PGRN and GRN by immunoblot. […] Next, HAP1 SORT1 KO cells were generated using CRISPR/Cas9 technology. […] Thus, disruption of the SORT1/PGRN axis alters intracellular PGRN trafficking and leads to decreased GRN production.
# cathepsin L, sequence (P07711 114-333, species assumed): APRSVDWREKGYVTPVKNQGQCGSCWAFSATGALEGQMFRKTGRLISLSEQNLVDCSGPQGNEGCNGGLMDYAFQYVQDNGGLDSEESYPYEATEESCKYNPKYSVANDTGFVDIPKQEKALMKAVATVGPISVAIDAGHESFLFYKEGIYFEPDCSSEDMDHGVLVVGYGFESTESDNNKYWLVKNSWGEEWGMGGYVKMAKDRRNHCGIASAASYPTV
molecule,measurement,setting,value
CCCC[C@@H](C=O)NC(=O)[C@H](CC(C)C)NC(=O)[C@H](CC(C)C)NC(C)=O [ALLN] (Ac-Leu-Leu-[Nle]-aldehyde),GRN levels compared to vehicle treated control,[1],reduced GRN levels
CC(NC(=O)[C@H](Cc1ccccc1)NC(=O)OCc1ccccc1)C(=O)CF (stereo partly drawn) [Z-FA-fmk],GRN levels compared to vehicle treated control,[1],reduced GRN levels
CO/C1=C\C(C)=C\[C@@H](C)[C@@H](O)[C@@H](C)C/C(C)=C/C=C/[C@H](OC)[C@@H]([C@@H](C)[C@@H](O)[C@H](C)[C@@]2(O)C[C@@H](O)[C@H](C)[C@@H](C(C)C)O2)OC1=O [bafilomycin A1],secreted PGRN,[2],significantly increased
same,GRN levels,[2],significantly decreased
same,intracellular PGRN,[2],significantly increased
"O=C[C@H](Cc1ccc(O)cc1)NC(=O)[C@H](Cc1ccccc1)NC(=O)OCc1ccccc1 [cathepsin L inhibitor II, Z-FY-CHO] (Cbz-Phe-Tyr-aldehyde)",endogenous PGRN,[3],modestly increased
same,production of GRN,[3],significantly decreasing
CCN(CC)CCCC(C)Nc1ccnc2cc(Cl)ccc12 (stereo not drawn) [chloroquine],secreted PGRN,[2],significantly increased
same,GRN levels,[2],significantly decreased
same,intracellular PGRN,[2],significantly increased
"C/C=C/[C@H]1O[C@@](O)([C@@H](C)[C@H](O)[C@H](C)[C@H]2OC(=O)/C(OC)=C/C(C)=C/[C@@H](C)[C@@H](O)[C@@H](CC)[C@@H](O)[C@H](C)C/C(C)=C/C=C/[C@@H]2OC)C[C@@H](O[C@H]2C[C@@H](O)[C@H](OC(N)=O)[C@@H](C)O2)[C@@H]1C [concanamycin A1, concanamycin A]",secreted PGRN,[2],significantly increased
same,GRN levels,[2],significantly decreased
same,intracellular PGRN,[2],significantly increased
CC(=O)N[C@@H](CC(C)C)C(=O)N[C@@H](CC(C)C)C(=O)N[C@H](C=O)CCCNC(=N)N [leupeptin],GRN levels compared to vehicle treated control,[1],reduced GRN levels
CCCCCCCC [octane],percent solubility in water by weight,[4],0.63×10^−4 % w/w
"GRN-2: recombinant human granulin-2 protein, SEQ ID NO: 21, with twin Strep-tag (AIQCPDSQFECPDFSTCCVMVDGSWGCCPMPQASCCEDRVHCCPHGAFCDLVHTRCIT; cysteine pairing not given here; also: twin Strep-tag (position not given here))",CTSD phenotype (total mature CTSD levels),Grn KO MEF cells,rescues the CTSD phenotype
N-TAP PGRN: full-length human PGRN with twin Strep tag and V5 epitope after the signal sequence; preserves sortilin binding,endocytosis of PGRN and generation of mature human GRNs,[5],equally well
recombinant cathepsin L,in vitro cleavage of PGRN (immunoblot),C-TAP PGRN,Incubation of cathepsin L and recombinant human PGRN lead to the time-dependent decrease of full-length PGRN and a corresponding increase of GRN protein
recombinant human PGRN: recombinant full-length human progranulin protein (C-TAP PGRN in the cathepsin L cleavage),GRNs generated by in vitro cleavage with cathepsin L,"cathepsin L; 2 hrs, immunoblot","generated multiple, mature GRNs including GRN-2, -3, and -4"
same,full-length PGRN on incubation with cathepsin L,cathepsin L; with corresponding increase of GRN protein,time-dependent decrease
same,CTSD phenotype (total mature CTSD levels),Grn KO MEF cells,can be rescued
same,endocytosis of PGRN and generation of mature human GRNs,[5],efficiently endocytosed
"C-TAP PGRN: full-length human PGRN with C-terminal twin-Strep tag followed by FLAG epitope; disrupts sortilin binding (protein, left off: small tags and cut ends) TRCPDGQFCPVACCLDPGGASYSCCRPLLDKWPTTLSRHLGGPCQVDAHCSAGHSCIFTVSGTSSCCPFPEAVACGDGHHCCPRGFHCSADGRSCFQRSGNNSVGAIQCPDSQFECPDFSTCCVMVDGSWGCCPMPQASCCEDRVHCCPHGAFCDLVHTRCITPTGTHPLAKKLPAQRTNRAVALSSSVMCPDARSRCPDGSTCCELPSGKYGCCPMPNATCCSDHLHCCPQDTVCDLIQSKCLSKENATTDLLTKLPAHTVGDVKCDMEVSCPDGYTCCRLQSGAWGCCPFTQAVCCEDHIHCCPAGFTCDTQKGTCEQGPHQVPWMEKAPAHLSLPDPQALKRDVPCDNVSSCPSSDTCCQLTSGEWGCCPIPEAVCCSDHQHCCPQGYTCVAEGQCQRGSEIVAGLEKMPARRASLSHPRDIGCDQHTSCPVGQTCCPSLGGSWACCQLPHAVCCEDRQHCCPAGYTCNVKARSCEKEVVSAQPATFLARSPHVGVKDVECGEGHFCHDNQTCCRDNRQGWACCPYRQGVCCADRRHCCPAGFRCAARGTKCLRREAPRWDAPLRDPALRQLL",endocytosis and processing into GRNs,HAP1 PGRN KO cells,not efficiently endocytosed and processed into GRNs
same,endocytosis of PGRN and generation of mature human GRNs,[5],equally well
